Like-named read-outs stand apart in the source and are kept apart here.
Legend:
[1] = target: human norepinephrine transporter (Homo sapiens (Human), UniProt P23975); assay: Human NET (norepinephrine transporter) uptake assay; type: cell-based; conditions: read-out: hNET Ki
Procedure, shortened: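 HEK293F cells transfected with human NET were thawed, plated at about 60,000 cells/well and held at 37 °C for at least 3 h. Compounds came from 10 mM DMSO stocks, with nomifensine as control, in 1×HBSS/0.02 M HEPES. Uptake was followed with a neurotransmitter transporter dye, dosed as % of vendor reconstitution, in triplicate.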

[2] = target: human dopamine transporter (Homo sapiens (Human), UniProt Q01959); assay: Human DAT (dopamine transporter) uptake assay; type: cell-based; conditions: read-out: hDAT Ki
Procedure, shortened: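 Uptake inhibition was measured in HEK293F cells transfected with human DAT, plated at ~60,000 cells/well and settled ≥3 h at 37 °C. Compounds came from 10 mM DMSO stocks. Read-out was uptake of a fluorescent neurotransmitter transporter dye in HBSS with 0.02 M HEPES, with dye level given as % of vendor reconstitution; n=3.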

[3] = target: human serotonin transporter (Homo sapiens (Human), UniProt P31645); assay: Human SERT (serotonin transporter) uptake assay; type: cell-based; conditions: read-out: hSERT Ki
Procedure, shortened: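 HEK293F cells transfected with human SERT, about 60,000 per well, settled for ≥3 h at 37° C before compound addition. Uptake was followed with a fluorescent transporter dye in HBSS with 0.02 M HEPES. Background came from 10 μM fluoxetine, nomifensine was the control, n=3.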

hERG = hERG (Homo sapiens (Human), UniProt Q12809); assay: Human ERG (hERG) assay, hERG currents in hERG-expressing CHO cells; type: cell-based; conditions: hERG-expressing CHO cells
Source text: The voltage-dependent potassium channel encoded by the human ether-a-go-go-related gene (hERG) is believed to play a key role in repolarisation of the ventricular cardiac action potential. Changes in its activity, caused either by inherited mutations of the gene sequence or pharmacological modification, can lead to prolongation of action potential duration. This can lead to prolongation of the QT interval recorded in man on an electrocardiogram and to a potentially fatal cardiac arrhythmia known as Torsades de Pointes.
hERG currents were recorded from hERG-expressing CHO cells. The biophysical and pharmacological characterization of the hERG currents in these cells was performed.

CYP3A4 = CYP3A4 (Homo sapiens (Human), UniProt P08684); assay: Cytochrome P450 inhibition assay, recombinant CYP3A4 (BFC substrate); type: in vitro ADME; conditions: recombinant enzyme
Protocol: (§1) Recombinant enzymes, 3A4 and 2D6, generated using the ABL yeast expression system were used. […] The assay mixture also included K2HPO4 (pH 7.4; conc. 0.1 M) and NADPH (conc. 1 mM). The incubation time was 30 minutes, and the reference inhibitor was A-naphthoflavone. For CYP2D6, the enzyme amount was 2 pmol per well, and the substrate (7-methoxy-4-(aminomethyl)-coumarin; MAMC) was used at 20 μM. The assay mixture also included K2HPO4 (pH 7.4; conc. 0.1 M) and NADPH (conc. 0.06 mM). The incubation time was 35 minutes, and the reference inhibitor was quinidine.
(§2) Briefly, 0.6 μL of serially diluted compound was added to 75 μL water. 10 μL of diluted compound in water was then added to each assay plate. 20 μL of a K2HPO4, enzyme, and substrate mixture was added. After 10 minutes of room temperature pre-incubation, 10 μL of NADPH was added, and the plates were placed at 37° C. for 30 or 35 minutes depending on the enzyme being tested. After the incubation was complete, 20 μL of 0.1% Tris/ACN was added to the plate. The plate was read on a FluorStar fluorescence plate reader.

CYP2D6 = CYP2D6 (Homo sapiens (Human), UniProt P10635); assay: Cytochrome P450 inhibition assay, recombinant CYP2D6 (MAMC substrate); type: in vitro ADME; conditions: recombinant enzyme
Protocol: as §1, §2

[4] = pKa of basic centres (Table 1); type: physicochemical
[5] = first base, e.g., an aliphatic primary, secondary, or tertiary amine, read-out: pKa (Base 1)
[6] = second base in the same molecule (if present), read-out: pKa (Base 2)

hERG, sequence (Q12809 whole entry): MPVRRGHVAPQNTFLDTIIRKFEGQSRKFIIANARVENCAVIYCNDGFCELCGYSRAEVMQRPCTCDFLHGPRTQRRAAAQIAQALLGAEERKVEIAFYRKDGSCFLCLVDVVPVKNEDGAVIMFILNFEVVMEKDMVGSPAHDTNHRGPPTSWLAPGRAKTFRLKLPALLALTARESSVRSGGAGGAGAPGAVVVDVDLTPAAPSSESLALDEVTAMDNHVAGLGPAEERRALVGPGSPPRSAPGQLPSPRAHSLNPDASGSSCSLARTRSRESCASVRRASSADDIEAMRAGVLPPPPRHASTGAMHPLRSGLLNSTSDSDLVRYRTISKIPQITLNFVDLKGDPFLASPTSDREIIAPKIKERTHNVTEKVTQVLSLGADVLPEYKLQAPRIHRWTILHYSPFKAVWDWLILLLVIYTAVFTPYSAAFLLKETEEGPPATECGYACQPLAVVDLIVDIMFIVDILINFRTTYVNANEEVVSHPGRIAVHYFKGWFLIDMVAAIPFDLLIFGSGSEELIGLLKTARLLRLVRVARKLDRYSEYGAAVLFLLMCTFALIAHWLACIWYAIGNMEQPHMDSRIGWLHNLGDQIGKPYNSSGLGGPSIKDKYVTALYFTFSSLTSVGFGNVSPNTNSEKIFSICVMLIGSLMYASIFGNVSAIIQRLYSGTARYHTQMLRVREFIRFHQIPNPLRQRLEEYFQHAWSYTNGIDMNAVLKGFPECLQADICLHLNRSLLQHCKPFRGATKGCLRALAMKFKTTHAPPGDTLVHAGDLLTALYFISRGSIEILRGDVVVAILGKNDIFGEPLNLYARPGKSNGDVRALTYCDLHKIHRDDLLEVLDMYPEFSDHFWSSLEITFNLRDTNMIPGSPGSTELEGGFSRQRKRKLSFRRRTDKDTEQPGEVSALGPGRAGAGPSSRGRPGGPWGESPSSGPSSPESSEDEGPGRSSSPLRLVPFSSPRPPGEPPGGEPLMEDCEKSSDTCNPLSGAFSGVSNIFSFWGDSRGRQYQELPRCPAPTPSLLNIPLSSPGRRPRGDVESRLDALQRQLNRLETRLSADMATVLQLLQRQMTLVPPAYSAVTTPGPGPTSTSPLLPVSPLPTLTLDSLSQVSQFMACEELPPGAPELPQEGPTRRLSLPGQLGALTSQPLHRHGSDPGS
human norepinephrine transporter, sequence (P23975 whole entry): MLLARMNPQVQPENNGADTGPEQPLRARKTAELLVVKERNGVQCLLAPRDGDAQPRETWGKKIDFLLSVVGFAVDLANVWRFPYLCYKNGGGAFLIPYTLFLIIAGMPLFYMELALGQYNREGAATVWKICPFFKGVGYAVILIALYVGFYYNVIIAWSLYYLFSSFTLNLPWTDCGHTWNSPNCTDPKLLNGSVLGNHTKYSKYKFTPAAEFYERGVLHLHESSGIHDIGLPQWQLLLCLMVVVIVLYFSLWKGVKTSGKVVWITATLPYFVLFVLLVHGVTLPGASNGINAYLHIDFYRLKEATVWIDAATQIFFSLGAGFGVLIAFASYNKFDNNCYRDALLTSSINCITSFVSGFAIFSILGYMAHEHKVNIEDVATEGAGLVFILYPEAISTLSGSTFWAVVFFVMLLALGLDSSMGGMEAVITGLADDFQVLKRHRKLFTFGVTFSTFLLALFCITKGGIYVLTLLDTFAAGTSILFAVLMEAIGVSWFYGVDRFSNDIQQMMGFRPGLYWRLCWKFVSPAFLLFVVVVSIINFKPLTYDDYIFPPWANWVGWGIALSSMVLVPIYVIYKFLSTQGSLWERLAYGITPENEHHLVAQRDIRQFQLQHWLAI
human serotonin transporter, sequence (P31645 whole entry): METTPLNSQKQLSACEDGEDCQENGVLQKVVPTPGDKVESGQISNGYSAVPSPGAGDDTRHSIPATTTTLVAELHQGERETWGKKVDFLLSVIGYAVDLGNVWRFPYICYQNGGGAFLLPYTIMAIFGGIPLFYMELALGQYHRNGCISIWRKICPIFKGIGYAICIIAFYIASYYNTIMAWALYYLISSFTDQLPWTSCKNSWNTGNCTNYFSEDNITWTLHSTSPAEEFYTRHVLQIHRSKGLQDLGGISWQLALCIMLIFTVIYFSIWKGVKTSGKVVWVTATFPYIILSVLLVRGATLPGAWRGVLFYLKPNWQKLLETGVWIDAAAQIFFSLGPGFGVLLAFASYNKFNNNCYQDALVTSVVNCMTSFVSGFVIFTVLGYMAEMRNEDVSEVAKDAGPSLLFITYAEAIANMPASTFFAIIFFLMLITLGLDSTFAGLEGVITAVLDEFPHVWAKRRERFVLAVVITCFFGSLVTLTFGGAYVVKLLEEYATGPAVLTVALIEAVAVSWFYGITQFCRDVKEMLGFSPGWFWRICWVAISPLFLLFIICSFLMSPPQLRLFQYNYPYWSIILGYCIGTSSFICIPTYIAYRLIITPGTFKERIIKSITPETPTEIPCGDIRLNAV
CYP2D6, sequence (P10635 whole entry): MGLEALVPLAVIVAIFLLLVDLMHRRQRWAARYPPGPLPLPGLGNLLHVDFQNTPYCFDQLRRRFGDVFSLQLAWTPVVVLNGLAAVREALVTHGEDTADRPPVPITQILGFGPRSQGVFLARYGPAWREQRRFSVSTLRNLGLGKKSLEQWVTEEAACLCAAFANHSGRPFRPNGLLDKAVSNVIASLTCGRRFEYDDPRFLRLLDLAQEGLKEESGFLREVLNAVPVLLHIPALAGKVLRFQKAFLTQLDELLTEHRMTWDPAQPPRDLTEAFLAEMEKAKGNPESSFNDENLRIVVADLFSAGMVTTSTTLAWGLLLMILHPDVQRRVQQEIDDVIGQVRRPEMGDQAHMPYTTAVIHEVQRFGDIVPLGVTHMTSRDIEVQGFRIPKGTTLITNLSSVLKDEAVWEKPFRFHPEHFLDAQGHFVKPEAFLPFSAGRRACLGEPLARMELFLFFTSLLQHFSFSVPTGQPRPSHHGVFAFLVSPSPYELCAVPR
human dopamine transporter, sequence (Q01959 whole entry): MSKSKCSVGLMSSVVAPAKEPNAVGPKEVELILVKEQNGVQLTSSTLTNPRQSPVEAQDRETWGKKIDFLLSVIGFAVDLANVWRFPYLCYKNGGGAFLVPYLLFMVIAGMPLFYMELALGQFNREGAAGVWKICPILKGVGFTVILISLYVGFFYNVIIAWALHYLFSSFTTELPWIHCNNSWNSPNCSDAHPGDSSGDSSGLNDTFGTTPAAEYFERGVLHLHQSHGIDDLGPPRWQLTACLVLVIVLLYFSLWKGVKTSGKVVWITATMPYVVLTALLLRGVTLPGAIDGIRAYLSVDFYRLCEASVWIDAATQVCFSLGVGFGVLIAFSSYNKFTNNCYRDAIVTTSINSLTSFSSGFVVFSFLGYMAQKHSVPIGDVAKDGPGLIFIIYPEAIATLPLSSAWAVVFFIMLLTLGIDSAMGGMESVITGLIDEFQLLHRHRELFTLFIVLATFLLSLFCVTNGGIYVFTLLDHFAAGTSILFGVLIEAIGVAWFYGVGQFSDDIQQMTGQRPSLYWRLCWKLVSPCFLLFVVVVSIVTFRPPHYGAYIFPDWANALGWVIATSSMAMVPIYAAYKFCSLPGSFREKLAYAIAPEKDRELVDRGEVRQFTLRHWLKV
CYP3A4, sequence (P08684 whole entry): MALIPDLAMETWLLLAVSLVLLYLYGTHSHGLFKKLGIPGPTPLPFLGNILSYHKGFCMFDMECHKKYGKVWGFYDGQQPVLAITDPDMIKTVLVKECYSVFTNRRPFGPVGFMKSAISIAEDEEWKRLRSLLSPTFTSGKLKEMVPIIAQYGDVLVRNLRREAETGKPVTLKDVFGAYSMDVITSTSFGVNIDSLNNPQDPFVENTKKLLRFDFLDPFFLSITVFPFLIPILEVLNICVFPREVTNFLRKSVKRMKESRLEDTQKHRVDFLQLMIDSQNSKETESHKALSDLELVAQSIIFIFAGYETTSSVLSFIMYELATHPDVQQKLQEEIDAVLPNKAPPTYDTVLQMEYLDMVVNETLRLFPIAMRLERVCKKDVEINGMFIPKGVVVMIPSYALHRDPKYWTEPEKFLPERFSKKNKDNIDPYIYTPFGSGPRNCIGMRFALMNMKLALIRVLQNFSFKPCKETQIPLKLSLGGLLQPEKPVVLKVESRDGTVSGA

CNC[C@H](c1ccc2ccccc2c1)[C@H](OCC(=O)N1CC[C@@H](O)C1)c1ccccc1 [Compound 34]
Ki [1]: 0.0027 µM
Ki [2]: 0.0285 µM
Ki [3]: 0.0075 µM
IC50 (hERG): 33 µM
IC50 (CYP3A4): 20 µM
IC50 (CYP2D6): 12 µM
pKa [4, 5]: 9.6

CNC[C@H](c1ccc(Cl)c(Cl)c1)[C@H](O)c1cccc(I)c1 (single isomer, unassigned) [Compound 151]
Ki [1]: 0.0204 µM
Ki [2]: 0.0314 µM
Ki [3]: 0.0452 µM
IC50 (hERG): 3.8 µM
IC50 (CYP3A4): 2.1 µM
IC50 (CYP2D6): 0.13 µM
pKa [4, 5]: 9.4

CNC[C@H](c1ccc2ccccc2c1)[C@@H](F)c1ccccc1 [Compound 11]
Ki [1]: 0.0016 µM
Ki [2]: 0.0111 µM
Ki [3]: 0.0042 µM
IC50 (hERG): 11 µM
IC50 (CYP3A4): 6.7 µM
IC50 (CYP2D6): 0.096 µM
pKa [4, 5]: 9.4

CNC[C@H](c1ccc2ccccc2c1)[C@H](O)c1ccc(Cl)nc1 [Compound 26]
Ki [1]: 0.0022 µM
Ki [2]: 0.0535 µM
Ki [3]: 0.0016 µM
IC50 (hERG): 7.5 µM
IC50 (CYP3A4): 20 µM
IC50 (CYP2D6): 0.027 µM
pKa [4, 5]: 9.6

CNCC(Cc1ccccc1OC)c1ccc2ccccc2c1 (stereo not drawn) [Compound 57]
Ki [1]: 0.005 µM
Ki [2]: 0.0202 µM
Ki [3]: 0.0059 µM
IC50 (hERG): 4.7 µM
IC50 (CYP3A4): 3.3 µM
IC50 (CYP2D6): 0.19 µM
pKa [4, 5]: 10.1

NC[C@@H](c1ccc2ccccc2c1)C(O)c1ccncc1Cl (stereo partly drawn) [Compound 118]
Ki [1]: 0.253 µM
Ki [2]: 0.139 µM
Ki [3]: 0.0366 µM
IC50 (hERG): 24 µM
IC50 (CYP3A4): 20 µM
IC50 (CYP2D6): 3.9 µM
pKa [4, 5]: 8

CNCC(c1ccc(Cl)c(Cl)c1)[C@H](O)c1ccccc1 (mixture of isomers) [Compound 53]
Ki [1]: 0.0045 µM
Ki [2]: 0.0098 µM
Ki [3]: 0.0173 µM
IC50 (hERG): 9.8 µM
IC50 (CYP3A4): ≥ 20 µM
IC50 (CYP2D6): 0.41 µM
pKa [4, 5]: 9.4

CNC[C@@H](c1ccc2ccccc2c1)[C@H](O)c1ccccn1 (racemic) [Compound 72]
Ki [1]: 0.0101 µM
Ki [2]: 0.1 µM
Ki [3]: 0.0276 µM
IC50 (hERG): 33 µM
IC50 (CYP3A4): ≥ 20 µM
IC50 (CYP2D6): 0.76 µM
pKa [4, 5]: 9.6
pKa [4, 6]: 4.1

CNC[C@H](Cc1ccccc1O)c1ccc2ccccc2c1 [Compound 140]
Ki [1]: 0.0259 µM
Ki [2]: 0.0916 µM
Ki [3]: 0.0283 µM
IC50 (hERG): 6.1 µM
IC50 (CYP3A4): 20 µM
IC50 (CYP2D6): 0.86 µM
pKa [4, 5]: 10

CNC[C@H](c1ccc(Cl)c(Cl)c1)[C@H](O)c1ccccc1 [Compound 10]
Ki [1]: 0.0015 µM
Ki [2]: 0.0073 µM
Ki [3]: 0.0117 µM
IC50 (hERG): 9.1 µM
IC50 (CYP3A4): 20 µM
IC50 (CYP2D6): 0.12 µM
pKa [4, 5]: 9.4

CNC[C@H](c1ccc2ccccc2c1)[C@H](F)c1ccccc1 [Compound 9]
Ki [1]: 0.0015 µM
Ki [2]: 0.0423 µM
Ki [3]: 0.0057 µM
IC50 (hERG): 9.5 µM
IC50 (CYP3A4): 8.6 µM
IC50 (CYP2D6): 0.21 µM
pKa [4, 5]: 9.4

CNC[C@H](c1ccc2ccccc2c1)[C@H](OCC(=O)N1CCOCC1)c1ccccc1 [Compound 23]
Ki [1]: 0.002 µM
Ki [2]: 0.0656 µM
Ki [3]: 0.0056 µM
IC50 (hERG): 21 µM
IC50 (CYP3A4): 20 µM
IC50 (CYP2D6): 4.9 µM
pKa [4, 5]: 9.6

CNC[C@H](c1ccc(Cl)c(Cl)c1)[C@@H](O)c1ccccc1 [Compound 70]
Ki [1]: 0.0095 µM
Ki [2]: 0.0485 µM
Ki [3]: 0.143 µM
IC50 (hERG): 31 µM
IC50 (CYP3A4): 20 µM
IC50 (CYP2D6): 0.22 µM
pKa [4, 5]: 9.4

CNC[C@H](c1ccc2ccccc2c1)[C@@H](O)c1ccccc1F [Compound 60]
Ki [1]: 0.0053 µM
Ki [2]: 0.0832 µM
Ki [3]: 0.0107 µM
IC50 (hERG): 28 µM
IC50 (CYP3A4): 20 µM
IC50 (CYP2D6): 0.56 µM
pKa [4, 5]: 9.7

CNC[C@H](c1ccc2ccccc2c1)[C@H](N)c1ccccc1 [Compound 87]
Ki [1]: 0.0181 µM
Ki [2]: 0.114 µM
Ki [3]: 0.0061 µM
IC50 (hERG): 17 µM
IC50 (CYP3A4): 0.94 µM
IC50 (CYP2D6): 0.066 µM
pKa [4, 5]: 9.8
pKa [4, 6]: 8.5

CNC[C@@H](Cc1ccccc1)c1ccc2ccccc2c1 [Compound 5]
Ki [1]: 0.0014 µM
Ki [2]: 0.0101 µM
Ki [3]: 0.0028 µM
IC50 (hERG): 6.5 µM
IC50 (CYP3A4): 18 µM
IC50 (CYP2D6): 0.24 µM
pKa [4, 5]: 10.1

CNC[C@@H](c1ccc2ccccc2c1)[C@H](O)c1ccccn1 [Compound 99]
Ki [1]: 0.041 µM
Ki [2]: 0.287 µM
Ki [3]: 0.0432 µM
IC50 (hERG): 33 µM
IC50 (CYP3A4): ≥ 20 µM
IC50 (CYP2D6): 3.6 µM
pKa [4, 5]: 9.6
pKa [4, 6]: 4.1

CNC[C@H](c1ccc(Br)c(Cl)c1)[C@H](O)c1ccccc1 (racemic) [Compound 43]
Ki [1]: 0.0033 µM
Ki [2]: 0.0073 µM
Ki [3]: 0.0197 µM
IC50 (hERG): 7.1 µM
IC50 (CYP3A4): 8.1 µM
IC50 (CYP2D6): 0.11 µM
pKa [4, 5]: 9.4

CNC[C@@H](c1ccc(Cl)c(Cl)c1)[C@@H](OC)c1cccc(NS(=O)(=O)C(F)(F)F)c1 [Compound 172]
Ki [1]: 0.625 µM
Ki [2]: 0.102 µM
Ki [3]: 1.26 µM
IC50 (hERG): 4.7 µM
IC50 (CYP3A4): 0.2 µM
IC50 (CYP2D6): 0.97 µM
pKa [4, 5]: 9.4

CNC[C@H](c1ccc2ccccc2c1)[C@H](O)c1ccccc1F [Compound 15]
Ki [1]: 0.0017 µM
Ki [2]: 0.0425 µM
Ki [3]: 0.0024 µM
IC50 (hERG): 12 µM
IC50 (CYP3A4): 20 µM
IC50 (CYP2D6): 0.2 µM
pKa [4, 5]: 9.7

CN(C)CC(C)(c1ccc2ccccc2c1)C(O)c1ccccc1 (stereo not drawn) [Compound 86]
Ki [1]: 0.0167 µM
Ki [2]: 0.0099 µM
Ki [3]: 0.0027 µM
IC50 (hERG): 0.85 µM
IC50 (CYP3A4): 20 µM
IC50 (CYP2D6): 0.29 µM
pKa [4, 5]: 9.2

CNC[C@@H](Cc1ccc(C)s1)c1ccc2ccccc2c1 [Compound 44]
Ki [1]: 0.0033 µM
Ki [2]: 0.0741 µM
Ki [3]: 0.0122 µM
IC50 (hERG): 3.3 µM
IC50 (CYP3A4): 8 µM
IC50 (CYP2D6): 1 µM
pKa [4, 5]: 10

CNC[C@H](c1ccc2ccccc2c1)[C@H](O)c1cccnc1 (racemic) [Compound 62]
Ki [1]: 0.0065 µM
Ki [2]: 0.045 µM
Ki [3]: 0.0099 µM
IC50 (hERG): 25 µM
IC50 (CYP3A4): ≥ 20 µM
IC50 (CYP2D6): 1 µM
pKa [4, 5]: 9.6
pKa [4, 6]: 5.1

CNCC(Cc1cccnc1)c1ccc2ccccc2c1 (stereo not drawn) [Compound 48]
Ki [1]: 0.0038 µM
Ki [2]: 0.078 µM
Ki [3]: 0.0023 µM
IC50 (hERG): 33 µM
IC50 (CYP3A4): 15 µM
IC50 (CYP2D6): 0.58 µM
pKa [4, 5]: 9.9

CNCC(c1ccc(Br)c(Cl)c1)[C@H](O)c1ccccc1 (stereo partly drawn) [Compound 16]
Ki [1]: 0.0018 µM
Ki [2]: 0.0066 µM
Ki [3]: 0.0063 µM
IC50 (hERG): 5 µM
IC50 (CYP3A4): 19 µM
IC50 (CYP2D6): 0.23 µM
pKa [4, 5]: 9.4

CNCC(Cc1ccccc1O)c1ccc2ccccc2c1 (stereo not drawn) [Compound 52]
Ki [1]: 0.0041 µM
Ki [2]: 0.0267 µM
Ki [3]: 0.0204 µM
IC50 (hERG): 12 µM
IC50 (CYP3A4): 20 µM
IC50 (CYP2D6): 0.9 µM
pKa [4, 5]: 10

From patent US9944618B2, “Inhibiting neurotransmitter reuptake” (Mayo Foundation for Medical Education and Research, priority 2013, dated 2018)
